Data on three compounds can be found in patent US12049450B2, “Pyridyloxy-carboxylate derivative and preparation method therefor, herbicidal composition, and use” (Qingdao Kingagroot Chemical Compound Co., Ltd., priority 2018, dated 2024).

SMILES strings stand for the structures.

Holding throughout (assay type): in vivo
One data set deals with rice (japonica rice). The experiment in a line: Transplanted rice safety evaluation in rice field soil pot. Conditions: 1000 g/ha, 21 days after treatment. The text has this:
(§1) The activity level standard of harmful plants destruction (i. e. growth inhibition rate) is as follows: • Level 5: the growth inhibition rate is greater than 85%; • Level 4: the growth inhibition rate is equal to or greater than 60% and less than 85%; • Level 3: the growth inhibition rate is equal to or greater than 40% and less than 60%; • Level 2: the growth inhibition rate is equal to or greater than 20% and less than 40%; • Level 1: the growth inhibition rate is equal to or greater than 5% and less than 20%; • Level 0: the growth inhibition rate is less than 5%;
(§2) Transplanted rice safety evaluation and weed control effect evaluation in rice field:
In addition, the rice field soil that loaded into the 1/1,000,000 ha pot was leveled to keep water storage at 3-4 cm depth. The 3-leaf stage rice (japonica rice) was transplanted at 3 cm of transplanting depth the next day. The compound of the present invention was treated by the same way after 5 days of transplantation.
(§3) The fertility condition of Monochoria vaginalis 14 days and rice 21 days after the treatment of the compound of the invention with the naked eye.

Data set [1] deals with Monochoria vaginalis. The experiment in a line: Weed control effect evaluation in rice field soil pot. Conditions: paddy pot, 1000 g/ha, 14 days after treatment; resistant to pyrazosulfuron-ethyl and penoxsulam.
Source text: as §1, §2
Rice field soil was loaded into a 1/1,000,000 ha pot. The seeds of Monochoria vaginalis were sowed and gently covered with soil, then left to stand still in greenhouse in the state of 0.5-1 cm of water storage. It was kept at 3-4 cm of water storage thereafter. The weeds were treated by dripping the WP or SC water diluents prepared according to the common preparation method of the compounds of the present invention with pipette homogeneously to achieve specified effective amount when Monochoria vaginalis reached 0.5 leaf stage.
as §3

In another data set the test system is Galium spurium. The experiment in a line: Post-emergence test experiment (greenhouse pot, spray at 2-3 leaf stage). The following applies: 1000 g/ha; post-emergence spray at 2-3 leaf stage; assessed after 3 weeks; fresh weight inhibition rate. In a few lines:
(§4)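 Activity graded levels 0-5 by fresh-weight inhibition (level 5 above 85%, level 0 below 5%), assessed 3 weeks after treatment. Plants grown in greenhouse pots were sprayed post-emergence at 2-3 leaves using acetone/tween-80 solutions with methyl oleate synergist (1.5 L/ha).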

The subject of the next data set is Cyperus iria. Described as above. Conditions: 600 g/ha; for Cyperus iria, activity level (growth inhibition rate): post-emergence, after 3 weeks, from Hunan, resistant to ALS inhibitor herbicides. The method, boiled down:
as §4

In another data set the test system is Digitaria sanguinalis. The data set is described as above. The following applies: for Activity level (growth inhibition rate) Digitaria sanguinalis: 1000 g/ha, post-emergence spray at 2-3 leaf stage, assessed after 3 weeks, fresh weight inhibition rate. In a few lines: as §4
The next data set has as its system Echinochloa crusgalli. The description is as above. The following applies: for Activity level (growth inhibition rate) Echinochloa crusgalli: 1000 g/ha, post-emergence spray at 2-3 leaf stage, assessed after 3 weeks, fresh weight inhibition rate; for Echinochloa crusgalli, activity level (growth inhibition rate): post-emergence, after 3 weeks, from Hunan, resistant to ALS inhibitor herbicides. The method, boiled down:
as §4

The test system of a further data set is Abutilon theophrasti. The description is as above. Conditions: 1000 g/ha; post-emergence spray at 2-3 leaf stage; assessed after 3 weeks; fresh weight inhibition rate. The method, boiled down: as §4
Another data set has as its system Japonica rice. The data set is described as above. The following applies: 600 g/ha; for Japonica rice, activity level (growth inhibition rate): post-emergence, after 3 weeks. The method, boiled down: as §4
In a further data set the test system is Indica rice. The description is as above. Conditions: 600 g/ha; for Indica rice, activity level (growth inhibition rate): post-emergence, after 3 weeks. In a few lines: as §4
The subject of data set [2] is Monochoria vaginalis. Described as above. Conditions: 1000 g/ha; post-emergence spray at 2-3 leaf stage; assessed after 3 weeks; fresh weight inhibition rate. The method, boiled down: as §4
The subject of the next data set is Soybean. The experiment in a line: Spray drift test, application by unmanned gyroplane, soybean field at 10 meters. Conditions: 600 g/ha, gyroplane at 1 m, gentle breeze. Here is the method: Broadleaf crops are very sensitive to hormonal herbicides, therefore crop injuries are more likely to occur in case of spray drifting. Tests were conducted in gentle breeze for the compounds of the present invention. The formulation of the compounds of the present invention was applied by DJI unmanned gyroplane with application height of 1 m and water volume of 20 kg/ha. The use rate was 600 g/ha. The active ingredient was dissolved by acetone and diluted to aqueous solution of Tween 80. There's a soybean field at 10 meters from the application area and the height of soybean plants were about 15 cm at the application time.

Another data set has as its system Echinochloa phyllopogon. The experiment in a line: Post-emergence test experiment (greenhouse pot, spray at 2-3 leaf stage). Conditions: 600 g/ha. The method, boiled down: as §4
For another data set, the system named is Leptochloa chinensis. The description is as above. Conditions: 600 g/ha. The method, boiled down:
as §4

In another data set the test system is Setaria viridis. Described as above. Conditions: 600 g/ha. The method, boiled down: as §4
The mark [3] stands for this setting: post-emergence comparison, 600 g/ha.

For `CC(Oc1nc(F)c(Cl)c(N)c1Cl)C(=O)OCc1ccccc1` (stereo not drawn) [Compound 4], in the data set with rice (japonica rice), the “Rice, safety level” value is 0 (Level 0: the growth inhibition rate is less than 5%). In addition, in the data set on Monochoria vaginalis [1], the “Monochoria Vaginalis, activity level” value is reported as 5 (Level 5: the growth inhibition rate is greater than 85%). Also, the “Activity level (growth inhibition rate) Galium spurium” value in the data set on Galium spurium was 5 (Level 5: the growth inhibition rate is greater than 85%). Moreover, the “Cyperus iria, activity level (growth inhibition rate)” value in the data set with Cyperus iria was 5 (Level 5: the growth inhibition rate is greater than 85%). Further, the “Activity level (growth inhibition rate) Digitaria sanguinalis” value in the data set with Digitaria sanguinalis is on record as 5 (Level 5: the growth inhibition rate is greater than 85%). For the same compound, in the data set on Echinochloa crusgalli, the “Activity level (growth inhibition rate) Echinochloa crusgalli” value is 5 (Level 5: the growth inhibition rate is greater than 85%). Moreover, in the data set with Echinochloa crusgalli (600 g/ha), the “Echinochloa crusgalli, activity level (growth inhibition rate)” value was 5 (Level 5: the growth inhibition rate is greater than 85%). In the data set on Abutilon theophrasti, the “Activity level (growth inhibition rate) Abutilon theophrasti” value is on record as 5 (Level 5: the growth inhibition rate is greater than 85%). In addition, the “Japonica rice, activity level (growth inhibition rate)” value with Japonica rice is reported as 0 (Level 0: the growth inhibition rate is less than 5%). For the same compound, in the data set with Indica rice, the “Indica rice, activity level (growth inhibition rate)” value is given as 0 (Level 0: the growth inhibition rate is less than 5%). In addition, the “Activity level (growth inhibition rate) Monochoria Vaginalis” value with Monochoria vaginalis [2] is on record as 5 (Level 5: the growth inhibition rate is greater than 85%). Moreover, the “Soybean, injury level by spray drift” value in the data set with Soybean is 0 (Level 0: the growth inhibition rate is less than 5%).

In the case of `CC(Oc1nc(F)c(Cl)c(N)c1Cl)C(=O)SCc1ccc2ncccc2c1` (stereo not drawn) [Compound 185], the “Rice, safety level” value in the data set on rice (japonica rice) was 0 (Level 0: the growth inhibition rate is less than 5%). Further, the “Monochoria Vaginalis, activity level” value with Monochoria vaginalis [1] was 5 (Level 5: the growth inhibition rate is greater than 85%). The “Activity level (growth inhibition rate) Galium spurium” value in the data set with Galium spurium is listed as 5 (Level 5: the growth inhibition rate is greater than 85%). Moreover, the “Cyperus iria, activity level (growth inhibition rate)” value in the data set with Cyperus iria is recorded as 5 (Level 5: the growth inhibition rate is greater than 85%). Moreover, the “Activity level (growth inhibition rate) Digitaria sanguinalis” value in the data set with Digitaria sanguinalis is listed as 5 (Level 5: the growth inhibition rate is greater than 85%). Besides, in the data set with Echinochloa crusgalli, the “Activity level (growth inhibition rate) Echinochloa crusgalli” value is reported as 5 (Level 5: the growth inhibition rate is greater than 85%). The “Echinochloa crusgalli, activity level (growth inhibition rate)” value in the data set on Echinochloa crusgalli (600 g/ha) is on record as 5 (Level 5: the growth inhibition rate is greater than 85%). Also, in the data set with Abutilon theophrasti, the “Activity level (growth inhibition rate) Abutilon theophrasti” value was 5 (Level 5: the growth inhibition rate is greater than 85%). In addition, in the data set on Japonica rice, the “Japonica rice, activity level (growth inhibition rate)” value was 0 (Level 0: the growth inhibition rate is less than 5%). The “Indica rice, activity level (growth inhibition rate)” value with Indica rice is 0 (Level 0: the growth inhibition rate is less than 5%). In addition, the “Activity level (growth inhibition rate) Monochoria Vaginalis” value in the data set on Monochoria vaginalis [2] was 5 (Level 5: the growth inhibition rate is greater than 85%).

As to `CC(Oc1nc(F)c(Cl)c(N)c1Cl)C(=O)OCc1c(F)c(F)c(F)c(F)c1F` (stereo not drawn) [Compound 238], the “Activity level (growth inhibition rate) Galium spurium” value in the data set with Galium spurium is recorded as 5 (Level 5: the growth inhibition rate is greater than 85%). Moreover, the “Cyperus iria, activity level (comparison test)” value in the data set on Cyperus iria (post-emergence comparison) is 5 (Level 5: the growth inhibition rate is greater than 85%). Also, the “Echinochloa phyllopogon, activity level (comparison test)” value in the data set on Echinochloa phyllopogon is 4 (Level 4: the growth inhibition rate is equal to or greater than 60% and less than 85%). The “Leptochloa chinensis, activity level (comparison test)” value in the data set on Leptochloa chinensis is 5 (Level 5: the growth inhibition rate is greater than 85%). For the same compound, the “Activity level (growth inhibition rate) Digitaria sanguinalis” value in the data set on Digitaria sanguinalis is reported as 5 (Level 5: the growth inhibition rate is greater than 85%). The “Digitaria sanguinalis, activity level (comparison test)” value with Digitaria sanguinalis (setting [3]) is recorded as 5 (Level 5: the growth inhibition rate is greater than 85%). Besides, the “Activity level (growth inhibition rate) Echinochloa crusgalli” value in the data set on Echinochloa crusgalli is listed as 5 (Level 5: the growth inhibition rate is greater than 85%). The “Echinochloa crusgalli, activity level (comparison test)” value with Echinochloa crusgalli (setting [3]) is 5 (Level 5: the growth inhibition rate is greater than 85%). For the same compound, the “Activity level (growth inhibition rate) Abutilon theophrasti” value in the data set on Abutilon theophrasti is 5 (Level 5: the growth inhibition rate is greater than 85%). Moreover, in the data set on Setaria viridis, the “Setaria viridis, activity level (comparison test)” value is reported as 5 (Level 5: the growth inhibition rate is greater than 85%). In addition, the “Japonica rice, activity level (comparison test)” value with Japonica rice (post-emergence comparison) is 0 (Level 0: the growth inhibition rate is less than 5%). Further, the “Indica rice, activity level (comparison test)” value in the data set on Indica rice (post-emergence comparison) was 0 (Level 0: the growth inhibition rate is less than 5%). Further, the “Activity level (growth inhibition rate) Monochoria Vaginalis” value in the data set with Monochoria vaginalis [2] is 5 (Level 5: the growth inhibition rate is greater than 85%).
